In the kinase profiling compilation of Christmann-Franck et al. (2016):

Tests used:
Experiment in all cases: radiometric filter-binding kinase assay
ABL1 (human) = ABL1 (human) (UniProt P00519)
CDK9 CCNT1 (human) = CDK9 CCNT1 (human) (UniProt P50750+O60563)
CSNK1G2 (human) = CSNK1G2 (human) (UniProt P78368)
DDR2 (human) = DDR2 (human) (UniProt Q16832)
EIF2AK3 (human) = EIF2AK3 (human) (UniProt Q9NZJ5)
IRAK1 (human) = IRAK1 (human) (UniProt P51617)
MAP4K3 (human) = MAP4K3 (human) (UniProt Q8IVH8)
MAP4K5 (human) = MAP4K5 (human) (UniProt Q9Y4K4)
MYLK (human) = MYLK (human) (UniProt Q15746)
[1] = tested on: OXSR1 (human), O95747 [T185E]
PDGFRA (human) = PDGFRA (human) (UniProt P16234)
[2] = biological target: PRKAA1 PRKAB2 PRKAG1 (human) (UniProt O43741+Q13131+P54619)
PRKCG (human) = PRKCG (human) (UniProt P05129)
PTK6 (human) = PTK6 (human) (UniProt Q13882)
SIK2 (human) = SIK2 (human) (UniProt Q9H0K1)
SIK3 (human) = SIK3 (human) (UniProt Q9Y2K2)
STK16 (human) = STK16 (human) (UniProt O75716)
STK24 (human) = STK24 (human) (UniProt Q9Y6E0); details: compound 1.0 µM
STK33 (human) = STK33 (human) (UniProt Q9BYT3)
TEK (human) = TEK (human) (UniProt Q02763)
TESK1 (human) = TESK1 (human) (UniProt Q15569)
TLK1 (human) = TLK1 (human) (UniProt Q9UKI8)
TSSK1B (human) = TSSK1B (human) (UniProt Q9BXA7)
TTBK1 (human) = TTBK1 (human) (UniProt Q5TCY1)
TTBK2 (human) = TTBK2 (human) (UniProt Q6IQ55)
ULK1 (human) = ULK1 (human) (UniProt O75385)
ULK2 (human) = ULK2 (human) (UniProt Q8IYT8)
WNK1 (human) = WNK1 (human) (UniProt Q9H4A3)
ZAP70 (human) = ZAP70 (human) (UniProt P43403)

Chain of CSNK1G2 (human) (P78368 whole entry, looked up): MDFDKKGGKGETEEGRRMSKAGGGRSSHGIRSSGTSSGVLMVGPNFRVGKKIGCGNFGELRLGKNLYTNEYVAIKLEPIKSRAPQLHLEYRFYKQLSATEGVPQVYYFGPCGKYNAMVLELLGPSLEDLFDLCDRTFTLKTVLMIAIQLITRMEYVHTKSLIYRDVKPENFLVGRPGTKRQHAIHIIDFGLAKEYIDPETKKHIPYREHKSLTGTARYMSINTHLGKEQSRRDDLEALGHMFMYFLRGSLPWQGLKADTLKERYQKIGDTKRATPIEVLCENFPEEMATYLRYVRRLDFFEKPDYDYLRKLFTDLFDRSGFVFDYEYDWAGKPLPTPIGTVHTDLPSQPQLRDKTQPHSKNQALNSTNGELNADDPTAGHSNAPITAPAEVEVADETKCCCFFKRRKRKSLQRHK
Chain of STK16 (human) (O75716 whole entry, looked up): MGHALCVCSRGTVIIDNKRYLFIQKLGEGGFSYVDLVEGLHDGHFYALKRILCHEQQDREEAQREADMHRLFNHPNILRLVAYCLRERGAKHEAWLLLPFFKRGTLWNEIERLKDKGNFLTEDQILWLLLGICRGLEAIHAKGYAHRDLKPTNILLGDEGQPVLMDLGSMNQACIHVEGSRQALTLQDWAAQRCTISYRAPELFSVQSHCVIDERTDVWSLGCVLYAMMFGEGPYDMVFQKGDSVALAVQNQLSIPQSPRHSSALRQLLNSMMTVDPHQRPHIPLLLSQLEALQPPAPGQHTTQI
Chain of SIK3 (human) (Q9Y2K2 whole entry, looked up): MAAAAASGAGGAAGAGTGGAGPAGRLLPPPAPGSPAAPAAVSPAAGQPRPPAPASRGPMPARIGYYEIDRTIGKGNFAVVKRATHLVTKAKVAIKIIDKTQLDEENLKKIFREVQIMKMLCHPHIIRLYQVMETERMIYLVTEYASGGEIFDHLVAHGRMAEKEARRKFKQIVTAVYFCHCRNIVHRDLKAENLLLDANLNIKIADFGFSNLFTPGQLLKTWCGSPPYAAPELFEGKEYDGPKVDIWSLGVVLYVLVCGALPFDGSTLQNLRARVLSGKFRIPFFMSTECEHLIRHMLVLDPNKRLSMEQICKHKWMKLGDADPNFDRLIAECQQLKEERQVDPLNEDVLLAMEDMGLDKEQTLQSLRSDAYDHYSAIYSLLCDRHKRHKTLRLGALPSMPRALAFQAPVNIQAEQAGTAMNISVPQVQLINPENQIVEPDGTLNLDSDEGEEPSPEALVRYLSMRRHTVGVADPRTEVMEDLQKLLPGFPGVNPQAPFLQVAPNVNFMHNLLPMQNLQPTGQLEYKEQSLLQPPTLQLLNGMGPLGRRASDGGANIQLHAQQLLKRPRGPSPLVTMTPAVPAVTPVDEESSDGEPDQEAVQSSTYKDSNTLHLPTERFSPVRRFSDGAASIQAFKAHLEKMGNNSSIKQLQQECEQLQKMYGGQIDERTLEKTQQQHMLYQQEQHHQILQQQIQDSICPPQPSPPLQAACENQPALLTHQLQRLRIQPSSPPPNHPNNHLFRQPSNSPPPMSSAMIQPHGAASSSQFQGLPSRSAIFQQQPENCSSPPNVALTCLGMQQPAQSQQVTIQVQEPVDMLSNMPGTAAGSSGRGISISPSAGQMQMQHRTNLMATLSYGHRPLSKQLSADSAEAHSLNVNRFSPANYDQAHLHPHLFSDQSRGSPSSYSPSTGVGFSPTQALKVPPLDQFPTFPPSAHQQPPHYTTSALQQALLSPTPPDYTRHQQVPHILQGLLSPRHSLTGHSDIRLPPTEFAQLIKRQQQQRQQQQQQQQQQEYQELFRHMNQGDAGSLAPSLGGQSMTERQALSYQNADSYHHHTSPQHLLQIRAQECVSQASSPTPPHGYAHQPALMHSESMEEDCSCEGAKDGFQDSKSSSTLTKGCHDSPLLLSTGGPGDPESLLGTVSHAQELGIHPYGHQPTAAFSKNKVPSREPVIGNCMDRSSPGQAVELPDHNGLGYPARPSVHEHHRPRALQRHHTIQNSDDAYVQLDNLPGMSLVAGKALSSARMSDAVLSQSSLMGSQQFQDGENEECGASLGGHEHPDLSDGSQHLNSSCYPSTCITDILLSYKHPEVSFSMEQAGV
Chain of WNK1 (human) (Q9H4A3 whole entry, looked up): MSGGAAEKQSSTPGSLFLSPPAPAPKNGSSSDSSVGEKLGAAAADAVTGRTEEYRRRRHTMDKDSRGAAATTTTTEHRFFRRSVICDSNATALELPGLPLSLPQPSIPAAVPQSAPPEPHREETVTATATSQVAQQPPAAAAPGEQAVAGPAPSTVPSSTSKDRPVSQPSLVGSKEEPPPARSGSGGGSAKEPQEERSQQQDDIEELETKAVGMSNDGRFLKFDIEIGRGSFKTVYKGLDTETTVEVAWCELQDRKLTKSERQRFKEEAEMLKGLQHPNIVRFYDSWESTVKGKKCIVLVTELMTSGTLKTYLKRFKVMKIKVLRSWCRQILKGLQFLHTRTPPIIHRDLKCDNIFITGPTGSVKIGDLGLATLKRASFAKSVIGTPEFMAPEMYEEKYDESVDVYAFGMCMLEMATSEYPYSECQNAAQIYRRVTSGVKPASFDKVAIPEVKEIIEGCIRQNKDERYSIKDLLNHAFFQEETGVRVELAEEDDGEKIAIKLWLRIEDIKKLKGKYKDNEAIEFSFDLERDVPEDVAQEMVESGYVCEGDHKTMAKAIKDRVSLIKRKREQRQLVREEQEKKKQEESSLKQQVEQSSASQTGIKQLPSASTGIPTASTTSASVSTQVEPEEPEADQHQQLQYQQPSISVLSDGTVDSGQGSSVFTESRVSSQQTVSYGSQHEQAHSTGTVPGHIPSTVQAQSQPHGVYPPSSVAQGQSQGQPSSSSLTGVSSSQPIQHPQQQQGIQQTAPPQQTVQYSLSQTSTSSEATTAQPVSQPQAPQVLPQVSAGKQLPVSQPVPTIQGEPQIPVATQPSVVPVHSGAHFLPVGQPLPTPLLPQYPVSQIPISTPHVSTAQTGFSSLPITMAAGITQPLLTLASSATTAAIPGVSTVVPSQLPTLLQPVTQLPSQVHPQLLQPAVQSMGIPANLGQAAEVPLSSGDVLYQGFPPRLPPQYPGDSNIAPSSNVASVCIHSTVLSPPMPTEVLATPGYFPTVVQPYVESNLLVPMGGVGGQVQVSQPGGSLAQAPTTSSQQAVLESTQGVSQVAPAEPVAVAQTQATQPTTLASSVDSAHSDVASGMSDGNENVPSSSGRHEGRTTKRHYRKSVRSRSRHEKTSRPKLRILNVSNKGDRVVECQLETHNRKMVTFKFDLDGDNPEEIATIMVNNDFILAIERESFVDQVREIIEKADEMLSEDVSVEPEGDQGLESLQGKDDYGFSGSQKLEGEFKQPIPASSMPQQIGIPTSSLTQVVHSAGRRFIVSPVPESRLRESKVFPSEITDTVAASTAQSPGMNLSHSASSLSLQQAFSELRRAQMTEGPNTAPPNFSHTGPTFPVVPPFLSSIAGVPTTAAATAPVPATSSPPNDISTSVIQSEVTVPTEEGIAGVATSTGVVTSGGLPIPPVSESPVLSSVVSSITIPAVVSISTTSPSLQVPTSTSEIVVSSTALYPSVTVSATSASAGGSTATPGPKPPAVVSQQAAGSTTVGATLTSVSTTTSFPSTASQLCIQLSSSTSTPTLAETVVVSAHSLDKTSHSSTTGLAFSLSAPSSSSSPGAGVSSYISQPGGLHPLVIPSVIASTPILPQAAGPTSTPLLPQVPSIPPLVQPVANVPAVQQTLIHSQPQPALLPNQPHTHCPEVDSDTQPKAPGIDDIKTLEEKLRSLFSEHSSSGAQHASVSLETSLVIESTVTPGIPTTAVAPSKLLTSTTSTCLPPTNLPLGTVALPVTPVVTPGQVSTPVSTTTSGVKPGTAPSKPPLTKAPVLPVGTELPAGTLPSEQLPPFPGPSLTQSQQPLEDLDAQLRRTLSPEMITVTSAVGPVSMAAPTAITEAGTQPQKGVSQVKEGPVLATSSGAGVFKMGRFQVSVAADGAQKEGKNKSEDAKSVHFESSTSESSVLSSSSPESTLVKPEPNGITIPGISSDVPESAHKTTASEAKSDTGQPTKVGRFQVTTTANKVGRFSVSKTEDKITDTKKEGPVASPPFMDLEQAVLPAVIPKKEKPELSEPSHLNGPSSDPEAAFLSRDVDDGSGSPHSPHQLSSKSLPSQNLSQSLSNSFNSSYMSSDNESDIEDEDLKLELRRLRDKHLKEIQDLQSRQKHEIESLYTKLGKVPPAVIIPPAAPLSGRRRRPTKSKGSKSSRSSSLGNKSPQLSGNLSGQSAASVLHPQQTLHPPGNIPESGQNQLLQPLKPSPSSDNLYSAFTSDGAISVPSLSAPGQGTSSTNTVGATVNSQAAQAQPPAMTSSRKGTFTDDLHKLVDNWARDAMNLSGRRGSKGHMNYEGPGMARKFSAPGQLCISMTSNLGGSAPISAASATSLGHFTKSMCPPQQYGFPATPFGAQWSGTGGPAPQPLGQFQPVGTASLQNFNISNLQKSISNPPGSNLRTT
Chain of TSSK1B (human) (Q9BXA7 whole entry, looked up): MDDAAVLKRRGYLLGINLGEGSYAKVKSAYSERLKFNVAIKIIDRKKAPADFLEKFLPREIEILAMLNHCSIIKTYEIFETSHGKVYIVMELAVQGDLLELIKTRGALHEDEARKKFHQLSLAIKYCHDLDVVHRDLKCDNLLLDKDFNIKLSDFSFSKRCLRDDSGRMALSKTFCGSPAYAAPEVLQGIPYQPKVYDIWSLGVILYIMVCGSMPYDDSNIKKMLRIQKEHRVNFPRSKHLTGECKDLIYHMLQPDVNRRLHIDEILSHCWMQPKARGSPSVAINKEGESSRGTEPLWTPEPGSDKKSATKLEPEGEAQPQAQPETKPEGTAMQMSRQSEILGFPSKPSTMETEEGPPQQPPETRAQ

residual activity (ABL1 (human); compound 0.1 µM): 120%
residual activity (ABL1 (human); compound 1.0 µM): 113%
residual activity (ABL1 (human); compound 10.0 µM): 76%
residual activity (CDK9 CCNT1 (human); compound 0.1 µM): 109%
residual activity (CDK9 CCNT1 (human); compound 1.0 µM): 96%
residual activity (CDK9 CCNT1 (human); compound 10.0 µM): 51%
residual activity (CSNK1G2 (human); compound 0.1 µM): 123%
residual activity (CSNK1G2 (human); compound 1.0 µM): 112%
residual activity (CSNK1G2 (human); compound 10.0 µM): 102%
residual activity (DDR2 (human); compound 0.1 µM): 105%
residual activity (DDR2 (human); compound 1.0 µM): 101%
residual activity (DDR2 (human); compound 10.0 µM): 91%
residual activity (EIF2AK3 (human); compound 0.1 µM): 114%
residual activity (EIF2AK3 (human); compound 1.0 µM): 101%
residual activity (EIF2AK3 (human); compound 10.0 µM): 73%
residual activity (IRAK1 (human); compound 0.1 µM): 104%
residual activity (IRAK1 (human); compound 1.0 µM): 77%
residual activity (IRAK1 (human); compound 10.0 µM): 27%
residual activity (MAP4K3 (human); compound 0.1 µM): 98%
residual activity (MAP4K3 (human); compound 1.0 µM): 72%
residual activity (MAP4K3 (human); compound 10.0 µM): 41%
residual activity (MAP4K5 (human); compound 0.1 µM): 111%
residual activity (MAP4K5 (human); compound 1.0 µM): 108%
residual activity (MAP4K5 (human); compound 10.0 µM): 61%
residual activity (MYLK (human); compound 0.1 µM): 118%
residual activity (MYLK (human); compound 1.0 µM): 112%
residual activity (MYLK (human); compound 10.0 µM): 110%
residual activity ([1]; compound 0.1 µM): 113%
residual activity ([1]; compound 1.0 µM): 112%
residual activity ([1]; compound 10.0 µM): 118%
residual activity (PDGFRA (human); compound 0.1 µM): 104%
residual activity (PDGFRA (human); compound 1.0 µM): 108%
residual activity ([2]; compound 0.1 µM): 68%
residual activity ([2]; compound 1.0 µM): 21%
residual activity ([2]; compound 10.0 µM): 6%
residual activity (PRKCG (human); compound 0.1 µM): 118%
residual activity (PRKCG (human); compound 1.0 µM): 110%
residual activity (PRKCG (human); compound 10.0 µM): 101%
residual activity (PTK6 (human); compound 0.1 µM): 121%
residual activity (PTK6 (human); compound 1.0 µM): 94%
residual activity (PTK6 (human); compound 10.0 µM): 92%
residual activity (SIK2 (human); compound 0.1 µM): 99%
residual activity (SIK2 (human); compound 1.0 µM): 86%
residual activity (SIK2 (human); compound 10.0 µM): 77%
residual activity (SIK3 (human); compound 0.1 µM): 98%
residual activity (SIK3 (human); compound 1.0 µM): 99%
residual activity (SIK3 (human); compound 10.0 µM): 73%
residual activity (STK16 (human); compound 0.1 µM): 117%
residual activity (STK16 (human); compound 1.0 µM): 118%
residual activity (STK16 (human); compound 10.0 µM): 105%
residual activity (STK24 (human)): 109%
residual activity (STK33 (human); compound 0.1 µM): 105%
residual activity (STK33 (human); compound 1.0 µM): 83%
residual activity (STK33 (human); compound 10.0 µM): 38%
residual activity (TEK (human); compound 0.1 µM): 105%
residual activity (TEK (human); compound 1.0 µM): 86%
residual activity (TEK (human); compound 10.0 µM): 88%
residual activity (TESK1 (human); compound 0.1 µM): 112%
residual activity (TESK1 (human); compound 1.0 µM): 111%
residual activity (TESK1 (human); compound 10.0 µM): 101%
residual activity (TLK1 (human); compound 0.1 µM): 113%
residual activity (TLK1 (human); compound 1.0 µM): 107%
residual activity (TLK1 (human); compound 10.0 µM): 100%
residual activity (TSSK1B (human); compound 0.1 µM): 97%
residual activity (TSSK1B (human); compound 1.0 µM): 85%
residual activity (TSSK1B (human); compound 10.0 µM): 89%
residual activity (TTBK1 (human); compound 0.1 µM): 103%
residual activity (TTBK1 (human); compound 1.0 µM): 104%
residual activity (TTBK1 (human); compound 10.0 µM): 96%
residual activity (TTBK2 (human); compound 0.1 µM): 122%
residual activity (TTBK2 (human); compound 1.0 µM): 122%
residual activity (TTBK2 (human); compound 10.0 µM): 103%
residual activity (ULK1 (human); compound 0.1 µM): 115%
residual activity (ULK1 (human); compound 1.0 µM): 89%
residual activity (ULK1 (human); compound 10.0 µM): 75%
residual activity (ULK2 (human); compound 0.1 µM): 109%
residual activity (ULK2 (human); compound 10.0 µM): 54%
residual activity (WNK1 (human); compound 0.1 µM): 113%
residual activity (WNK1 (human); compound 1.0 µM): 108%
residual activity (WNK1 (human); compound 10.0 µM): 119%
residual activity (ZAP70 (human); compound 0.1 µM): 93%
residual activity (ZAP70 (human); compound 1.0 µM): 100%
Structure (SMILES): Cc1ccc(-c2ccc3c(ccc4sc5c(c43)NC[C@@H](C)NC5=O)n2)cn1
